Earlier results in patent US12194028B2 (Slayback Pharma LLC, priority 2022, dated 2025).

In the case of `COc1ccc(-n2nc(C(N)=O)c3c2C(=O)N(c2ccc(N4CCCCC4=O)cc2)CC3)cc1` [apixaban, 1-(4-methoxyphenyl)-7-oxo-6-[4-(2-oxopiperidin-1-yl)phenyl]-4,5-dihydropyrazolo [3,4-c] pyridine-3-carboxamide], the aqueous solubility (in water) is given as 40 to 50 µg/mL and the solubility (throughout physiological pH range of 1.0-8.0) is given as “very low”.
